# Data as given in article PMC11435248, “Auraptene Boosts the Efficacy of the Tamoxifen Metabolites Endoxifen and 4-OH-Tamoxifen in a Chemoresistant ER+ Breast Cancer Model” (Pharmaceutics, 2024).
# Biological target: T1, eIF4A1 (Homo sapiens, UniProt P60842)
# T1 construct: recombinant eIF4A1 from pET19bm, 10-histidine tract at the N-terminal with Prescission Protease site, expressed in E. coli Rosetta Star
# Assay: fluorescence quenching of purified recombinant eIF4A ([…] auraptene)
# Type: binding
# T1 sequence (P60842 2-406): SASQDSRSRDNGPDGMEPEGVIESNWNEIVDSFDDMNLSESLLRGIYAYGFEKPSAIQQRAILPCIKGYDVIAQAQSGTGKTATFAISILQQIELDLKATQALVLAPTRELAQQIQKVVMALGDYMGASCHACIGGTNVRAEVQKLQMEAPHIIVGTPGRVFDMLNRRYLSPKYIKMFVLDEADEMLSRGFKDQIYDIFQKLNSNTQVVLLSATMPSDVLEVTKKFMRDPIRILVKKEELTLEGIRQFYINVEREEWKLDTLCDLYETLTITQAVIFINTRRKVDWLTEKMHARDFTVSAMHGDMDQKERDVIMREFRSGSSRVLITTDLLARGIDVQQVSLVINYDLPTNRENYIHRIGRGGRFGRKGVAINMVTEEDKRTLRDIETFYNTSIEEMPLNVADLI
compound,measurement,value
"CC(C)=CCC/C(C)=C/COc1ccc2ccc(=O)oc2c1 [Aur, auraptene]",fluorescence quenching of purified recombinant eIF4A (50 and 100 μM auraptene),"a reduction in the emission intensity was observed, resulting from a quenching phenomenon, suggesting that auraptene binds with the eIF4A"
